Values quoted from earlier work in EP0502042B1, “PHARMACEUTICAL COMPOSITIONS” (PHARMACIA S.p.A., priority 1989, dated 1991).

System: mice

For `CN1C(=O)C(O)N=C(c2ccccc2)c2cc(Cl)ccc21` (stereo not shown) [Temazepam], the “oral LD 50” value is given as roughly 1000 mg/kg.
